Laboratory results reported in patent US5707963A, “Methods of using growth inhibitory peptides” (Health Research, Incorporated, priority 1996, dated 1998).
Values joined by “and” are separate entries in the source; they are usually repeats but may differ in a detail not shown here. Identical values can stand only once. Like-named read-outs stand apart in the source and are kept apart here.

Tests used:
[1] = system: estrogen-stimulated growth of mouse uterus; assay type: in vivo
Procedure: An in vivo wet weight bioassay measuring inhibition of estrogen-stimulated growth of uteri was performed. The procedure of Mizejewski et al. was used for the wet weight assay (see Mizejewski, G. J. et al. (1983); Mizejewski, G. J. et al. (1986); Mizejewski, G. J. and A. S. Warner (1989); Mizejewski, G. J. et al., "Separation of the Estrogen-Activated Growth-Regulatory Forms of Alpha-Fetoprotein in Mouse Amniotic Fluid," Biol of Reprod 42:887-898 (1990); and Allen, S.H.G. et al. (1993)).
(§1) Briefly, the synthesized powdered peptide was reconstituted in saline (1 mg/ml) to form a stock solution of the GIP. The stock solution was appropriately diluted to provide dosages of 25 to 100 ng/mouse. 0.1 ml of the appropriately diluted GIP was injected intraperitoneally into 15-18 day old Nya:NYLAR female mice. Control mice were injected with saline or other peptides, including a peptide encoded by a portion of the amino acid sequence of albumin and a random 34 amino acid peptide. 1 hour after this first injection, an estrogen challenge of 0.5 micrograms of E2 in 0.1 ml saline was given to determine the change in uterine responsiveness to E2 resulting from exposure to the first injection. 23 hours after the second injection, uteri were dissected, trimmed free of connective tissue and immediately weighed. The uterine wet weights were normalized to mouse body weight (mg uterine weight/g of body weight) to compensate for differences in body weight among litters of the same age. Percent inhibition of estrogen-stimulated uterine growth was calculated as described by Mizejewski et al. (1983).
Two separate bioassays for inhibition of estrogen-stimulated growth were used. The first was an in vivo bioassay measuring an estrogen-induced increase in wet weight of the immature mouse uterus in a 24-hour determination. Dosages of peptide fragments ranged from 10 to 100 ng, and the %inhibition given in Table 6 represents the peak assay point of the dilution series.

[2] = system: diethylstilbestrol (DES)-stimulated growth of mouse uterus; test: In vivo wet weight bioassay, inhibition of DES-stimulated growth of uteri; details: for Percent Growth Inhibition: immature mouse uterus
Procedure: An in vivo wet weight bioassay measuring inhibition of diethylstilbestrol (DES)-stimulated growth was also performed. The procedure of Mizejewski et al. (see previous citations) was used for the wet weight assay. The applicability of the wet weight bioassay for measuring DES-stimulated growth of uteri is disclosed by Korach, K. S. et al., "Estrogenic activity in vivo and in vitro of some diethylstilbestrol metabolites and analogs", Proc Natl Acad Sci USA 75:468-471 (1978).
as §1, with “10 ng” for “25”, “μg/mouse.” for “ng/mouse.”, “saline.” for “saline or other peptides, including a peptide encoded by a portion of the amino acid sequence of albumin and a random 34 amino acid peptide.”, “a DES” for “an estrogen”, “DES” for “E2”, “DES-stimulated” for “estrogen-stimulated”

[3] = system: human chorionic gonadotropin (HCG)-stimulated growth of mouse ovary; test: In vivo wet weight bioassay, inhibition of HCG-stimulated growth of the ovary; details: for Percent Growth Inhibition: immature mouse ovary
Procedure: An in vivo wet weight bioassay measuring inhibition of human chorionic gonadotropin (HCG)-stimulated growth of the ovary was performed. The procedure of Mizejewski et al. (see previous citations) was used for the wet weight assay. The applicability of the wet weight bioassay for measuring HCG-stimulated growth of the ovary is disclosed by Mizejewski, G. J., "Human Chorionic Gonadotrophin: Comparative Studies of Ovarian Uptake In Mammals", Comp Biochem Physio 52A:29-34 (1975).
Briefly, the synthesized powdered peptide was reconstituted in saline (1 mg/ml) to form a stock solution of the GIP. The stock solution was appropriately diluted to provide dosages of 10ng to 100 μg/mouse. 0.1 ml of the appropriately diluted GIP was injected intraperitoneally into 15-18 day old Nya:NYLAR female mice. Control mice were injected with saline. 1 hour after this first injection, an HCG challenge of 2.8 I.U. of HCG in 0.05 ml saline was given to determine the change in ovarian responsiveness to HCG resulting from exposure to the first injection. 23 hours after the second injection, ovaries were dissected, trimmed free of connective tissue and immediately weighed. The ovarian wet weights were normalized to mouse body weight (mg ovarian weight/g of body weight) to compensate for differences in body weight among litters of the same age. Percent inhibition of HCG-stimulated ovarian growth was calculated as described by Mizejewski et al. (1983).

[4] = system: estrogen-stimulated growth of mouse uterus; assay type: in vivo; remark: listed apart in the source

In the case of “Leu Ser Glu Asp Lys Leu Leu Ala Cys Gly Glu Gly Ala Ala Asp Ile ile Ile Gly His Leu Cys Ile Arg His Glu Met Thr Pro Val Ash Pro Gly Val (LSEDKLLACGEGAADIIIGHLCIRHEMTPVNPGV) [GIP]”, the “inhibition of estrogen-stimulated growth (range over Table 1)” value ([1]; 25 to 100 ng/mouse, immature and adult mouse uterus) was 33-79%, the “Percent Growth Inhibition” value ([1]; immature mouse uterus, 25 ng per mouse i.p., E2 challenge 0.5 micrograms) was 33% and the “Percent Growth Inhibition” value ([1]; immature mouse uterus, 25 ng per mouse, added human AFP) was 42%. The “Percent Growth Inhibition” value ([1]; immature mouse uterus, 50 ng per mouse i.p., E2 challenge 0.5 micrograms) was 38% and 37% and 30-40%, the “Percent Growth Inhibition” value ([1]; immature mouse uterus, 100 ng per mouse i.p., E2 challenge 0.5 micrograms) was 35% and the “inhibition of estrogen-stimulated growth” value ([1]; immature mouse uterus, peptide diluted 2,000-fold or more) was 30-40%. The “dose with demonstrable activity without E2 activation prior to inoculation” value ([1]; mouse contains the circulating ligand (estrogen)) was 100 ng/mouse, the “inhibition of DES-induced growth (range over Table 3)” value ([2]; 10ng to 100 μg/mouse) was 14-27% and the “Percent Growth Inhibition” value ([2]; 10 ng per mouse) was 27%. For the same substance, the “Percent Growth Inhibition” value ([2]; 100 ng per mouse) was 25%, the “Percent Growth Inhibition” value ([2]; 800 ng per mouse i.p., DES 0.5 micrograms) was 18% and the “Percent Growth Inhibition” value ([2]; 1 μg per mouse) was 22%. The “Percent Growth Inhibition” value ([2]; 10 μg per mouse) was 20%, the “Percent Growth Inhibition” value ([2]; 100 μg per mouse) was 14% and the most effective dose ([2]; immature uterus, produced 27% growth inhibition) was 10 ng/mouse. For the same substance, the “inhibition of HCG-induced growth (range over Table 5)” value ([3]; 10ng to 100 μg/mouse) was 22-100%, the “Percent Growth Inhibition” value ([3]; 100 ng per mouse) was 70% and the “Percent Growth Inhibition” value ([3]; 125 ng per mouse) was 50%. The “Percent Growth Inhibition” value ([3]; 250 ng per mouse) was 56%, the “Percent Growth Inhibition” value ([3]; 500 ng per mouse) was 67% and the “Percent Growth Inhibition” value ([3]; 1 μg per mouse) was 100% and 79%. For the same substance, the “Percent Growth Inhibition” value ([3]; 10 μg per mouse) was 94%, the “Percent Growth Inhibition” value ([3]; 100 μg per mouse i.p., HCG 2.8 I.U.) was 22% and the most effective dose ([3]; immature ovary, produced 100% growth inhibition) was 1 μg/mouse. The “activity in adult cycling mice” value ([4]; adult cycling mice, with and without addition of purified human full-length AFP) was “active”, the “Percent Growth Inhibition” value ([4]; adult mouse uterus, 25 ng per mouse) was 66% and the “Percent Growth Inhibition” value ([4]; adult mouse uterus, 100 ng per mouse, added human AFP) was 79%. The “inhibition of estrogen-stimulated growth” value ([4]; adult mouse uterus, peptide diluted 2,000-fold or more) was 80%.
